Experiment [1] concerns sperm from volunteers and patients attending fertility clinics. To be noted: background statement, cited from earlier work.
The test system of experiment [2] is frozen-thawed spermatozoa (Bull semen samples). Put plainly: Sperm motility by microscopy on heated stage (percentage of motile spermatozoa with linear progressive movement). It is filed as cell-based. To be noted: for increase in sperm motility compared to fibronectin alone / increase in sperm motility compared to the RGD plus fibronectin sample: Angiotensin II 10^−9 moles/L added to fibronectin plus RGDS sample. The procedure: Each sperm sample was packed and frozen in 0.25 ml plastic straws. The frozen spermatozoa straw (0.25 ml) was rapidly thawed by plunging it into a 37° C. water bath. When the sample was thawed, the straw was dried with a tissue, kept horizontal and cut both ends into a pre-warmed TALP medium.
Spermatozoa were washed twice by TALP medium and centrifugation at 600×g for 10 minutes, then re-suspended with TALP pre-warmed to 37° C. The motility of the frozen-thawed spermatozoa was assessed at 37° C. using thermal plates. Sperm motility and morphology was estimated by microscopical observation on a warm 37° C. stage. Semen (10 μl) was covered by a cover glass (18 mm×18 mm) and at least 5 microscopic fields were examined. Motility was expressed as the percentage of motile spermatozoa with linear progressive movement in the sample (see Vinson, G. P., Puddefoot, J. R., Ho, M. M., Barker, S., Mehta, J., Saridogan, E. and Djahanbakhch, O. (1995). “Type 1 angiotensin II (AT1) receptors in sperm”, Journal Of Endocrinology, 144, 369-378). The prepared sperm sample were incubated with additives at 37° C. in a water bath as described in each example, and assayed for motility as before.
All incubations were carried out at 37° C., using water bath and heated stage. Semen samples (10 μl) were applied to preheated (37° C.) slides and placed on the microscope heated stage and examined. The number of motile sperm were counted in the control sample at zero time, and in the treated samples after the incubation times indicated.

A further experiment relates to bull spermatozoa. Put plainly: Chlortetracycline (CTC) fluorescence assay of capacitation state. The experiment is classed as cell-based. The conditions noted are these: Example 6. An excerpt: An alternative method of assessing capacitation is by using the CTC assay (DasGupta S, Mills C L, Fraser L R. Ca(2+)-related changes in the capacitation state of human spermatozoa assessed by a chlortetracycline fluorescence assay. J Reprod Fertil. 1993 September; 99(1):135-43.; Fraser L R, Herod J E. Expression of capacitation-dependent changes in chlortetracycline fluorescence patterns in mouse spermatozoa requires a suitable glycolysable substrate. J Reprod Fertil. 1990 March; 88(2):611-21). In this method, used in Example 6 below, patterns of staining distinguish non-capacitated, capacitated and acrosome reacted sperm. Chlortetracycline (CTC) solution: CTC (750 μM CTC in Tris (20 mM)-NaCl (130 mM), DL-cysteine (5 mM), buffer (20 mM Tris/130 mM NaCl, pH 7.8). Spermatozoa samples were obtained from healthy bulls (Semex, UK). All semen samples used in this study had been frozen and thawed. Each sample was packed in 0.25 ml plastic straws. The frozen spermatozoa straw (0.25 ml) was rapidly thawed by plunging it into a 37° C. water bath. When the sample was thawed, the straw was dried with a tissue, kept horizontal and cut both ends into a pre-warmed TALP medium. Spermatozoa were washed twice by TALP medium and centrifugation at 600 g for 10 minutes, then re-suspended with TALP pre-warmed to 37° C. Spermatozoa were incubated without additives, or with either angiotensin II (10^−9 moles per litre), fibronectin (5-50 μg/ml), or with both. Treated samples (45 μl) were aliquoted into foil wrapped eppendorf tubes with CTC solution (45 μl) and fixed with 12.5% paraformaldehyde, prior to viewing by […]. Three patterns of chlortetracycline fluorescent staining may be observed on bull spermatozoa: F (uncapacitated)-pattern, bright fluorescence was detected over the whole region of the sperm head; B (capacitated)-pattern, fluorescence was detected on the sperm head but not on the postacrosomal region; AR (acrosome-reacted)-pattern, weak fluorescence was observed over the sperm head, and a bright band was sometimes observed in the equatorial region.

For a further experiment, the system named is sperm. The experiment can be described thus: Sperm viability, carboxyfluorescein diacetate / propidium iodide live-dead stain. The experiment is classed as cell-based. The conditions noted are these: Example 7; fibronectin 5 μg/ml, stored at room temperature, after 3 days; untreated control 75% to 18%. As to the method:
Stock solutions: carboxyfluorescein diacetate (0.46 mg/ml in dimethyl sulphoxide), propidium iodide (0.5 mg/ml isotonic saline), formaldehyde (10 μl formalin to 150 μl distilled water). Fluorescence stain: 50 μl carboxyfluorescein and 50 μl of propidium iodide to 2 ml sperm extender, plus 100 μl formaldehyde.
Semen were diluted with stain (1:1) dilution and incubated at room temperature […] for 15 min. Samples washed with extender, and examined for live and dead sperm.

Where [3] appears, read: Example 3, fibronectin 2 μg/l added to sperm pre-incubated with RGDS, incubation of 5-10 minutes.

In the case of `CCCCc1nc(Cl)c(CO)n1Cc1ccc(-c2ccccc2-c2nn[nH]n2)cc1` [losartan], the “effect on the action of angiotensin II on the percentage of motile sperm” value in experiment [1] (specific AT1 receptor antagonist) is listed as “inhibits the action of angiotensin II on the percentage of motile sperm”.

As for “Angiotensin II (DRVYIHPF; Angiotensin-2; UniProt P01019 25-32, looked up) [peptide used as capacitating agent]”, the “increase in sperm motility compared to fibronectin alone” value in experiment [2] (Example 1) worked out at 71%; in experiment [2] (Example 1, 10 minutes) it was 43%; in experiment [2] (Example 1, 20 minutes) it was 64%. The “increase in sperm motility compared to the RGD plus fibronectin sample” value in experiment [2] (Example 1) amounted to 62%; in experiment [2] (Example 1, 10 minutes), 34%; in experiment [2] (Example 1, 20 minutes), 55%. For the same molecule, the sperm motility in experiment [2] (Example 2, Angiotensin II 10^−9 moles/L added to fibronectin (2 μg/l) sample, 10 minutes) is 64%; in experiment [2] (Example 2, Angiotensin II 10^−9 moles/L added to fibronectin (2 μg/l) sample, 20 minutes), 62%; in experiment [2] (Example 2, Angiotensin II 10^−9 moles/L added to fibronectin (2 μg/l) sample, 3040 minutes) it was 62%; in experiment [2] (Example 3, Angiotensin II 10^−9 moles/L added to fibronectin+RGDS sample, 10 minutes), 43%; in experiment [2] (Example 3, Angiotensin II 10^−9 moles/L added to fibronectin+RGDS sample, 20 minutes), 54%; in experiment [2] (Example 3, Angiotensin II 10^−9 moles/L added to fibronectin+RGDS sample, 3040 minutes), 54%. Besides, the “change in sperm motility” value is listed as “significant increase” in experiment [2] (Example 4, Angiotensin II 10^−9 moles/L added to vitronectin sample, 5 to 35 minutes) and “significant increase” in experiment [2] (Example 5, Angiotensin II 10^−9 moles/L added to laminin sample, 10 to 40 minutes). Moreover, in the experiment on bull spermatozoa (angiotensin II only (10^−9 moles per litre), 60 min incubation), the “capacitated sperm (B pattern)” value is recorded as 45%. In the experiment with bull spermatozoa (angiotensin II only (10^−9 moles per litre), 60 min incubation, control about 60%, 55% by 30 min), the “uncapacitated sperm (F pattern)” value is around 18%. Moreover, the “effect on percentage of motile sperm and linear velocity” value in experiment [1] is “may increase both the percentage of motile sperm and their linear velocity”.

For the molecule “Arg-Gly-Asp-Ser (RGDS; printed: Arg-Gly-Asp-Ser) [commercially available tetrapeptide used as a source of RGD]”, the “decrease in sperm motility” value in experiment [2] (Example 3, pre-incubation with RGDS 5×10^6 moles/L for 5 min, control 62% at time zero) came to 19%.

Regarding fibronectin, in the experiment with sperm, the “sperm remaining viable (living sperm)” value came out at 48%. Besides, in experiment [2] (Example 1, fibronectin 2 μg/l, incubation of 5-10 minutes, 37° C., control 70% at time zero), the sperm motility was found to be 14%. Further, in experiment [2] (Example 2, fibronectin 2 μg/l, incubation of 5-10 minutes, control 79% at time zero), the sperm motility is on record as 8%. Further, in experiment [2] (setting [3]), the “decrease of motility compared to the RGD treated sample” value came out at 28% and the “decrease of motility compared to the control” value is listed as 47%. Moreover, the “patterns of sperm staining (CTC)” value in the experiment with bull spermatozoa (fibronectin 5 μg/ml) is “very similar to the untreated controls”.

On to “laminin: extracellular matrix protein (250 μg/ml, Sigma)”, for which the “change in total sperm motility” value in experiment [2] (Example 5, laminin 2 μg/l, 10 min, 37° C.) is recorded as “significant decrease”.

B1: vitronectin: extracellular matrix protein (250 μg/ml, Sigma) (protein, UniProt P04004 20-478, looked up)
Vitronectin: DQESCKGRCTEGFNVDKKCQCDELCSYYQSCCTDYTAECKPQVTRGDVFTMPEDEYTVYDDGEEKNNATVHEQVGGPSLTSDLQAQSKGNPEQTPVLKPEEEAPAPEVGASKPEGIDSRPETLHPGRPQPPAEEELCSGKPFDAFTDLKNGSLFAFRGQYCYELDEKAVRPGYPKLIRDVWGIEGPIDAAFTRINCQGKTYLFKGSQYWRFEDGVLDPDYPRNISDGFDGIPDNVDAALALPAHSYSGRERVYFFKGKQYWEYQFQHQPSQEECEGSSLSAVFEHFAMMQRDSWEDIFELLFWGRTSAGTRQPQFISRDWHGVPGQVDAAMAGRIYISGMAPRPSLAKKQRFRHRNRKGYRSQRGHSRGRNQNSRRPSRATWLSLFSSEESNLGANNYDDYRMDWLVPATCEPIQSVFFFSGDKYYRVNLRTRRVDTVDPPYPRSIAQYWLGCPAPGHL
With B1, the “change in total sperm motility” value in experiment [2] (Example 4, vitronectin 2 μg/l, 5 minutes, 37° C.) is listed as “highly significant decrease”.

The values are drawn from patent US20070275366A1, “Regulation of Sperm Function” (priority 2003, published 2007).
